Data taken from patent US20230077362A1 (CORTEVA AGRISCIENCE LLC, priority 2019, published 2023).
Read-outs that look alike come from different tables or passages of the source.

Legend:
[1] = test system: Beet Armyworm (Spodoptera exigua) ("BAW"), second instar larvae; test: Bioassay on beet armyworm (BAW), 128-well diet tray assay; assay type: in vivo; conditions: for pest or weed control at 50 µg/cm2: Spodoptera exigua; for BAW rating: C = not tested, D = no activity noticed
Summary of the method: (§1)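 Second-instar larvae on diet in 128-well trays, covered and held at 25° C, 14:10 light-dark, for five to seven days. Percent mortality scored per well and averaged over eight wells; activity reported as a rating category.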

[2] = test system: Cabbage Looper (Trichoplusia ni) ("CL"), second instar larvae; test: Bioassay on cabbage looper (CL), 128-well diet tray assay; assay type: in vivo; conditions: for CL rating: C = not tested, D = no activity noticed
Summary of the method: as §1

[3] = read-out: BAW (Biological Results, rating)
[4] = Trichoplusia ni, read-out: CL (Biological Results, rating)
[5] = Trichoplusia ni, read-out: CL rating

## CC(C)c1ccc(N(C)C)cc1N1C(=O)CS/C1=N\C(=O)Nc1ccc(-c2ncn(-c3ccc(OC(F)(F)F)cn3)n2)cc1C#N [Compound J266, (Z)-1-(2-Cyano-4-(1-(5-(trifluoromethoxy)pyridin-2-yl)-1H-1,2,4-triazol-3-yl)phenyl)-3-(3-(5-(dimethylamino)-2-isopropylphenyl)-4-oxothiazolidin-2-ylidene)urea]
[1]; [3]
  pest or weed control at 50 µg/cm2: 50 to 100%
[2]; [4]
  pest or weed control at 50 µg/cm2: 50 to 100%

## CC(C)c1cc(F)c(N(C)C)cc1N1C(=O)CS/C1=N\C(=O)Nc1ccc(-c2nnc(-c3ccc(OC(F)(F)F)cc3)s2)cc1F [Compound J507, (Z)-1-(3-(5-(Dimethylamino)-4-fluoro-2-isopropylphenyl)-4-oxothiazolidin-2-ylidene)-3-(2-fluoro-4-(5-(4-(trifluoromethoxy)phenyl)-1,3,4-thiadiazol-2-yl)phenyl)urea]
[1]; read-out: BAW rating
  pest or weed control at 50 µg/cm2: 50 to 100%
[2]; [5]
  pest or weed control at 50 µg/cm2: 50 to 100%

## Cc1ccc(COCC(F)(F)F)c(N2C(=O)CS/C2=N\C(=O)Nc2ccc(-n3cnc(-c4ccc(OC(F)(F)F)cc4)n3)cc2)c1 [Compound J403, (Z)-1-(3-(5-Methyl-2-((2,2,2-trifluoroethoxy)methyl)phenyl)-4-oxothiazolidin-2-ylidene)-3-(4-(3-(4-(trifluoromethoxy)phenyl)-1H-1,2,4-triazol-1-yl)phenyl)urea]
[1]; read-out: BAW rating
  pest or weed control at 50 µg/cm2: 50 to 100%
[2]; [5]
  pest or weed control at 50 µg/cm2: 50 to 100%

## Cc1ccc(OCCC(F)(F)F)c(N2C(=O)CS/C2=N\C(=O)Nc2ccc(-c3ncn(-c4ccc(OC(F)(F)F)cn4)n3)cc2F)c1 [Compound J257, (Z)-1-(2-Fluoro-4-(1-(5-(trifluoromethoxy)pyridin-2-yl)-1H-1,2,4-triazol-3-yl)phenyl)-3-(3-(5-methyl-2-(3,3,3-trifluoropropoxy)phenyl)-4-oxothiazolidin-2-ylidene)urea]
[1]; [3]
  pest or weed control at 50 µg/cm2: 50 to 100%
[2]; [4]
  pest or weed control at 50 µg/cm2: 50 to 100%

## Cc1ccc(C(C)C)c(N2C(=O)CS/C2=N\C(=O)Nc2ccc(-c3ncn(-c4ccc(OCC(F)(F)F)cc4)n3)cc2F)c1 [Compound J57, (Z)-1-(2-Fluoro-4-(1-(4-(2,2,2-trifluoroethoxy)phenyl)-1H-1,2,4-triazol-3-yl)phenyl)-3-(3-(2-isopropyl-5-methylphenyl)-4-oxothiazolidin-2-ylidene)urea]
[1]; [3]
  pest or weed control at 50 µg/cm2: 50 to 100%
[2]; [4]
  pest or weed control at 50 µg/cm2: 50 to 100%

## Cc1ccc(Cc2ccccc2)c(N2C(=O)CS/C2=N\C(=O)Nc2ccc(-c3ncn(-c4ccc(C(F)(F)F)cc4)n3)cc2F)c1 [Compound J562, (Z)-1-(3-(2-Benzyl-5-methylphenyl)-4-oxothiazolidin-2-ylidene)-3-(2-fluoro-4-(1-(4-(trifluoromethyl)phenyl)-1H-1,2,4-triazol-3-yl)phenyl)urea]
[1]; read-out: BAW rating
  pest or weed control at 50 µg/cm2: 50 to 100%
[2]; [5]
  pest or weed control at 50 µg/cm2: 50 to 100%

## Cc1ccc(C(C)C)c(N2C(=O)CS/C2=N\C(=O)Nc2ccc(-c3ncn(-c4ccc(C(F)(F)F)cn4)n3)cc2F)c1 [Compound J279, (Z)-1-(2-Fluoro-4-(1-(5-(trifluoromethyl)pyridin-2-yl)-1H-1,2,4-triazol-3-yl)phenyl)-3-(3-(2-isopropyl-5-methylphenyl)-4-oxothiazolidin-2-ylidene)urea]
[1]; [3]
  pest or weed control at 50 µg/cm2: 50 to 100%
[2]; [4]
  pest or weed control at 50 µg/cm2: 50 to 100%

## Cc1ccc(COCC(F)(F)F)c(N2C(=O)CS/C2=N\C(=O)Nc2ccc(-c3ncn(-c4ccc(C(F)(F)C(F)(F)F)cc4)n3)cc2C)c1 [Compound J794, (Z)-1-(3-(5-Methyl-2-((2,2,2-trifluoroethoxy)methyl)phenyl)-4-oxothiazolidin-2-ylidene)-3-(2-methyl-4-(1-(4-(perfluoroethyl)phenyl)-1H-1,2,4-triazol-3-yl)phenyl)urea]
[1]; Table ABC, species BAW, 128-well diet tray assay, second instar larvae
  BAW rating (% control or mortality class): A (50-100)
[2]; Trichoplusia ni, Table ABC, species CL, 128-well diet tray assay, second instar larvae, read-out: CL rating (% control or mortality class)
  mortality at 50 µg/cm2: 50 to 100%

## Cc1ccc(COCC(F)(F)F)c(N2C(=O)CS/C2=N\C(=O)Nc2ccc(-c3cn(-c4ccc(C(F)(F)F)cc4)cn3)cc2)c1 [Compound J516, (Z)-1-(3-(5-Methyl-2-((2,2,2-trifluoroethoxy)methyl)phenyl)-4-oxothiazolidin-2-ylidene)-3-(4-(1-(4-(trifluoromethyl)phenyl)-1H-imidazol-4-yl)phenyl)urea]
[1]; read-out: BAW rating
  pest or weed control at 50 µg/cm2: 50 to 100%
[2]; [5]
  pest or weed control at 50 µg/cm2: 50 to 100%

## COCc1ccc(C)cc1N1C(=O)CS/C1=N\C(=O)Nc1ccc(-c2ncn(-c3ccc(C(F)(F)F)cn3)n2)cc1F [Compound J298, (Z)-1-(2-Fluoro-4-(1-(5-(trifluoromethyl)pyridin-2-yl)-1H-1,2,4-triazol-3-yl)phenyl)-3-(3-(2-(methoxymethyl)-5-methylphenyl)-4-oxothiazolidin-2-ylidene)urea]
[1]; [3]
  pest or weed control at 50 µg/cm2: 50 to 100%
[2]; [4]
  pest or weed control at 50 µg/cm2: 50 to 100%

## Cc1cc(-c2ncn(-c3ccc(C(F)(F)F)cn3)n2)ccc1NC(=O)/N=C1\SCC(=O)N1c1cc(N(C)C)ccc1C(C)C [Compound J285, (Z)-1-(3-(5-(Dimethylamino)-2-isopropylphenyl)-4-oxothiazolidin-2-ylidene)-3-(2-methyl-4-(1-(5-(trifluoromethyl)pyridin-2-yl)-1H-1,2,4-triazol-3-yl)phenyl)urea]
[1]; [3]
  pest or weed control at 50 µg/cm2: 50 to 100%
[2]; [4]
  pest or weed control at 50 µg/cm2: 50 to 100%

## Cc1ccc(CC(F)(F)F)c(N2C(=O)CS/C2=N\C(=O)NCCc2ccc(-c3ncn(-c4ccc(OC(F)(F)F)cc4)n3)cc2)c1 [Compound H12]
[1]; [3]
  pest or weed control at 50 µg/cm2: 50 to 100%
[2]; [4]
  pest or weed control at 50 µg/cm2: 50 to 100%

## CN(C)c1ccc(C(F)(F)F)c(N2C(=O)CS/C2=N\C(=O)Nc2ccc(-c3ncn(-c4ccc(OC(F)(F)F)cn4)n3)cc2F)c1 [Compound J262, (Z)-1-(3-(5-(Dimethylamino)-2-(trifluoromethyl)phenyl)-4-oxothiazolidin-2-ylidene)-3-(2-fluoro-4-(1-(5-(trifluoromethoxy)pyridin-2-yl)-1H-1,2,4-triazol-3-yl)phenyl)urea]
[1]; [3]
  pest or weed control at 50 µg/cm2: 50 to 100%
[2]; [4]
  pest or weed control at 50 µg/cm2: 50 to 100%

## Cc1ccc(C(F)(F)F)c(N2C(=O)CS/C2=N\C(=O)Nc2ccc(-c3ncn(-c4ccc(OC(F)(F)F)cc4)n3)cc2C#N)c1 [Compound J244, (Z)-1-(2-Cyano-4-(1-(4-(trifluoromethoxy)phenyl)-1H-1,2,4-triazol-3-yl)phenyl)-3-(3-(5-methyl-2-(trifluoromethyl)phenyl)-4-oxothiazolidin-2-ylidene)urea]
[1]; [3]
  pest or weed control at 50 µg/cm2: 50 to 100%
[2]; [4]
  pest or weed control at 50 µg/cm2: 50 to 100%

## CCOCc1ccc(C)cc1N1C(=O)CS/C1=N\C(=O)Nc1ccc(-c2ncn(-c3ccc(C)cc3)n2)cc1F [Compound J753, (Z)-1-(3-(2-(Ethoxymethyl)-5-methylphenyl)-4-oxothiazolidin-2-ylidene)-3-(2-fluoro-4-(1-(p-tolyl)-1H-1,2,4-triazol-3-yl)phenyl)urea]
[1]; read-out: BAW rating
  pest or weed control at 50 µg/cm2: 50 to 100%
[2]; [5]
  pest or weed control at 50 µg/cm2: 50 to 100%

## CC(C)c1ccc(N(C)C)cc1N1C(=O)CS/C1=N\C(=O)Nc1ccc(-c2ncn(-c3ccc(OC(F)(F)F)cn3)n2)cc1Cl [Compound J253, (Z)-1-(2-Chloro-4-(1-(5-(trifluoromethoxy)pyridin-2-yl)-1H-1,2,4-triazol-3-yl)phenyl)-3-(3-(5-(dimethylamino)-2-isopropylphenyl)-4-oxothiazolidin-2-ylidene)urea]
[1]; [3]
  pest or weed control at 50 µg/cm2: 50 to 100%
[2]; [4]
  pest or weed control at 50 µg/cm2: 50 to 100%

## Cc1ccc(COCC(F)F)c(N2C(=O)CS/C2=N\C(=O)Nc2ccc(-c3ncn(-c4ccc(C(F)(F)F)cn4)n3)cc2F)c1 [Compound J400]
[1]; Table ABC, species BAW
  BAW rating: A (50-100)
[2]; Table ABC, species CL
  CL rating: A (50-100)

## Cc1cccc(N2C(=O)CS/C2=N\C(=O)Nc2ccc(-c3ncn(-c4cccc(OC(F)(F)F)c4)n3)cc2F)c1COCC(F)(F)F [Compound J706]
[1]; Table ABC, species BAW
  BAW rating: A (50-100)
[2]; Table ABC, species CL
  CL rating: A (50-100)

## Cc1cc(COCC(F)(F)F)c(N2C(=O)CS/C2=N\C(=O)Nc2ccc(-c3ncn(-c4ccc(OC(F)(F)F)cc4)n3)cc2F)cc1C [Compound J455]
[1]; Table ABC, species BAW
  BAW rating: A (50-100)
[2]; Table ABC, species CL
  CL rating: A (50-100)

## Cc1ccc(OCCC(F)(F)F)c(N2C(=O)CS/C2=N\C(=O)Nc2ccc(-c3ncn(-c4ccc(OC(F)(F)F)cn4)n3)cc2C)c1 [Compound J255, (Z)-1-(3-(5-Methyl-2-(3,3,3-trifluoropropoxy)phenyl)-4-oxothiazolidin-2-ylidene)-3-(2-methyl-4-(1-(5-(trifluoromethoxy)pyridin-2-yl)-1H-1,2,4-triazol-3-yl)phenyl)urea]
[1]; [3]
  pest or weed control at 50 µg/cm2: 50 to 100%
[2]; [4]
  pest or weed control at 50 µg/cm2: 50 to 100%

## Cc1ccc(COCC(F)(F)F)c(N2C(=O)CS/C2=N\C(=O)Nc2ccc(-c3ncn(-c4ccc(OC(F)(F)C(F)(F)F)cc4)n3)cc2C)c1 [Compound J681]
[1]; Table ABC, species BAW
  BAW rating: A (50-100)
[2]; Table ABC, species CL
  CL rating: A (50-100)

## Cc1ccc(COCC(F)(F)F)c(N2C(=O)CS/C2=N\C(=O)Nc2ccc(-n3cnc(-c4ccc(OC(F)(F)F)cc4)n3)cc2C)c1 [Compound J442, (Z)-1-(3-(5-Methyl-2-((2,2,2-trifluoroethoxy)methyl)phenyl)-4-oxothiazolidin-2-ylidene)-3-(2-methyl-4-(3-(4-(trifluoromethoxy)phenyl)-1H-1,2,4-triazol-1-yl)phenyl)urea]
[1]; read-out: BAW rating
  pest or weed control at 50 µg/cm2: 50 to 100%
[2]; [5]
  pest or weed control at 50 µg/cm2: 50 to 100%

## CCCNc1ccc(C(C)C)c(N2C(=O)CS/C2=N\C(=O)Nc2ccc(-c3ncn(-c4ccc(OC(F)(F)F)cc4)n3)cc2F)c1 [Compound J107, (Z)-1-(2-Fluoro-4-(1-(4-(trifluoromethoxy)phenyl)-1H-1,2,4-triazol-3-yl)phenyl)-3-(3-(2-isopropyl-5-(propylamino)phenyl)-4-oxothiazolidin-2-ylidene)urea]
[1]; [3]
  pest or weed control at 50 µg/cm2: 50 to 100%
[2]; [4]
  pest or weed control at 50 µg/cm2: 50 to 100%

## Cc1cc(-c2ncn(-c3ccc(OC(F)(F)F)cc3)n2)ccc1NC(=O)/N=C1\SCC(=O)N1c1c(COCC(F)(F)F)ccc(C)c1C [Compound J679]
[1]; Table ABC, species BAW
  BAW rating: A (50-100)
[2]; Table ABC, species CL
  CL rating: A (50-100)
